Test results from the kinase profiling compilation of Christmann-Franck et al. (2016).
“And” between values parts separate entries of the source, which are not always exact repeats. Equal values may be shown once.

How the values were obtained:
Experiment in all cases: radiometric filter-binding kinase assay
LCK (mouse) = settings: compound 100.0 µM; ATP 50 µM; accession and sequence are those of the human protein
DYRK1A (human) = DYRK1A (human) (UniProt Q13627); settings: compound 100.0 µM; ATP 50 µM
PAK6 (human) = PAK6 (human) (UniProt Q9NQU5); settings: compound 100.0 µM; ATP 20 µM
EPHB1 (human) = EPHB1 (human) (UniProt P54762); settings: compound 100.0 µM; ATP 20 µM
TBK1 (human) = TBK1 (human) (UniProt Q9UHD2); settings: compound 100.0 µM; ATP 50 µM
IKBKB (human) = IKBKB (human) (UniProt O14920); settings: compound 100.0 µM; ATP 5 µM
ERBB4 (human) = ERBB4 (human) (UniProt Q15303); settings: compound 100.0 µM; ATP 5 µM
SRC (human) = SRC (human) (UniProt P12931); settings: compound 100.0 µM; ATP 50 µM
PKN2 (human) = PKN2 (human) (UniProt Q16513); settings: compound 100.0 µM; ATP 5 µM
ROCK2 (rat) = settings: compound 100.0 µM; ATP 20 µM; accession and sequence are those of the human protein
MAPK14 (human) = MAPK14 (human) (UniProt Q16539); settings: compound 100.0 µM; ATP 50 µM
NEK6 (human) = NEK6 (human) (UniProt Q9HC98); settings: compound 100.0 µM; ATP 50 µM
MKNK1 (human) = MKNK1 (human) (UniProt Q9BUB5); settings: compound 100.0 µM; ATP 50 µM
MAP3K1 (human) = MAP3K1 (human) (UniProt Q13233); settings: compound 100.0 µM; ATP 50 µM
CHEK1 (human) = CHEK1 (human) (UniProt O14757); settings: compound 100.0 µM; ATP 20 µM
DYRK3 (human) = DYRK3 (human) (UniProt O43781); settings: compound 100.0 µM; ATP 5 µM
CSNK2A1 (human) = CSNK2A1 (human) (UniProt P68400); settings: compound 100.0 µM; ATP 5 µM
BRSK2 (human) = BRSK2 (human) (UniProt Q8IWQ3); settings: compound 100.0 µM; ATP 50 µM
DYRK2 (human) = DYRK2 (human) (UniProt Q92630); settings: compound 100.0 µM; ATP 50 µM
MAP3K5 (human) = MAP3K5 (human) (UniProt Q99683); settings: compound 100.0 µM; ATP 50 µM
INSRR (human) = INSRR (human) (UniProt P14616); settings: compound 100.0 µM; ATP 5 µM
CDK2 CCNA2 (human) = CDK2 CCNA2 (human) (UniProt P20248+P24941); settings: compound 100.0 µM; ATP 20 µM
MAP2K2 (human) = MAP2K2 (human) (UniProt P36507); settings: compound 100.0 µM; ATP 5 µM
PAK4 (human) = PAK4 (human) (UniProt O96013); settings: compound 100.0 µM; ATP 5 µM
MAPK15 (human) = MAPK15 (human) (UniProt Q8TD08); settings: compound 100.0 µM; ATP 5 µM
[1] = system: RPS6KB1 (human), P23443 [T412E]; settings: compound 100.0 µM; ATP 20 µM
[2] = system: PAK2 (human), Q13177 [T402E]; settings: compound 100.0 µM; ATP 20 µM
[3] = target: PRKAA1 PRKAB2 PRKAG1 (human) (UniProt O43741+Q13131+P54619); settings: compound 100.0 µM; ATP 20 µM
AURKA (human) = AURKA (human) (UniProt O14965); settings: compound 100.0 µM; ATP 5 µM
MAPKAPK2 (human) = MAPKAPK2 (human) (UniProt P49137); settings: compound 100.0 µM; ATP 20 µM
CHEK2 (human) = CHEK2 (human) (UniProt O96017); settings: compound 100.0 µM; ATP 20 µM
PRKACA (human) = PRKACA (human) (UniProt P17612); settings: compound 100.0 µM; ATP 20 µM
MAP2K6 (human) = MAP2K6 (human) (UniProt P52564); settings: compound 100.0 µM; ATP 50 µM
TTK (human) = TTK (human) (UniProt P33981); settings: compound 100.0 µM; ATP 20 µM
RPS6KA3 KD1 KD2 (human) = RPS6KA3 KD1 KD2 (human) (UniProt P51812); settings: compound 100.0 µM; ATP 50 µM
GCK (human) = GCK (human) (UniProt Q12851); settings: compound 100.0 µM; ATP 20 µM
PRKCZ (human) = PRKCZ (human) (UniProt Q05513); settings: compound 100.0 µM; ATP 5 µM
GSK3B (human) = GSK3B (human) (UniProt P49841); settings: compound 100.0 µM; ATP 5 µM

Chain of AURKA (human) (O14965 whole entry, looked up): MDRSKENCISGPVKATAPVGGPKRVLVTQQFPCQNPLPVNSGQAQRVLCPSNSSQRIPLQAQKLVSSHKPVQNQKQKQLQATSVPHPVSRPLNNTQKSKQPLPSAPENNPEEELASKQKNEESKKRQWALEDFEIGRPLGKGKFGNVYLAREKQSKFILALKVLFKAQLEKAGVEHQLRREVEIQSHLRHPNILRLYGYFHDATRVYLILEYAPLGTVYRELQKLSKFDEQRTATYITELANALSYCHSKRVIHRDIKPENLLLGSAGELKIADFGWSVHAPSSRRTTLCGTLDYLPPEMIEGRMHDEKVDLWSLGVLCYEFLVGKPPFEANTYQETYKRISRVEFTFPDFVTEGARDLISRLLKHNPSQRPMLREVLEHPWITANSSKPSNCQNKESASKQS
Chain of DYRK2 (human) (Q92630 whole entry, looked up): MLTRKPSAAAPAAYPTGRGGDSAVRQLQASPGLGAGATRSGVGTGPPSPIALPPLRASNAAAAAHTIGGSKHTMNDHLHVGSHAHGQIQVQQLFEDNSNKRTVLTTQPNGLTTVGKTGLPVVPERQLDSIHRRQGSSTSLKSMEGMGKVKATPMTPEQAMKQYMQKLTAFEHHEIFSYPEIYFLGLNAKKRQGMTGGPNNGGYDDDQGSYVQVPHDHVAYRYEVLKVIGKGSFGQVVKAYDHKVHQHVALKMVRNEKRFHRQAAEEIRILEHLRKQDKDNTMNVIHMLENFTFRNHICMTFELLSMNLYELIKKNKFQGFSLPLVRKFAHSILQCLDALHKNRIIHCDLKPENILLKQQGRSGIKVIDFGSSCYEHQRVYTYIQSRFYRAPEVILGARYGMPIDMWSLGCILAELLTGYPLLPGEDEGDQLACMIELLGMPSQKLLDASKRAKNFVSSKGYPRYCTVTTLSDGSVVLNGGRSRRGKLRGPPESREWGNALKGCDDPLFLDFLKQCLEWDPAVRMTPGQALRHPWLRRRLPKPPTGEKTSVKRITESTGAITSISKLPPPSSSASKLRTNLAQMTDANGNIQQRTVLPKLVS
Chain of EPHB1 (human) (P54762 whole entry, looked up): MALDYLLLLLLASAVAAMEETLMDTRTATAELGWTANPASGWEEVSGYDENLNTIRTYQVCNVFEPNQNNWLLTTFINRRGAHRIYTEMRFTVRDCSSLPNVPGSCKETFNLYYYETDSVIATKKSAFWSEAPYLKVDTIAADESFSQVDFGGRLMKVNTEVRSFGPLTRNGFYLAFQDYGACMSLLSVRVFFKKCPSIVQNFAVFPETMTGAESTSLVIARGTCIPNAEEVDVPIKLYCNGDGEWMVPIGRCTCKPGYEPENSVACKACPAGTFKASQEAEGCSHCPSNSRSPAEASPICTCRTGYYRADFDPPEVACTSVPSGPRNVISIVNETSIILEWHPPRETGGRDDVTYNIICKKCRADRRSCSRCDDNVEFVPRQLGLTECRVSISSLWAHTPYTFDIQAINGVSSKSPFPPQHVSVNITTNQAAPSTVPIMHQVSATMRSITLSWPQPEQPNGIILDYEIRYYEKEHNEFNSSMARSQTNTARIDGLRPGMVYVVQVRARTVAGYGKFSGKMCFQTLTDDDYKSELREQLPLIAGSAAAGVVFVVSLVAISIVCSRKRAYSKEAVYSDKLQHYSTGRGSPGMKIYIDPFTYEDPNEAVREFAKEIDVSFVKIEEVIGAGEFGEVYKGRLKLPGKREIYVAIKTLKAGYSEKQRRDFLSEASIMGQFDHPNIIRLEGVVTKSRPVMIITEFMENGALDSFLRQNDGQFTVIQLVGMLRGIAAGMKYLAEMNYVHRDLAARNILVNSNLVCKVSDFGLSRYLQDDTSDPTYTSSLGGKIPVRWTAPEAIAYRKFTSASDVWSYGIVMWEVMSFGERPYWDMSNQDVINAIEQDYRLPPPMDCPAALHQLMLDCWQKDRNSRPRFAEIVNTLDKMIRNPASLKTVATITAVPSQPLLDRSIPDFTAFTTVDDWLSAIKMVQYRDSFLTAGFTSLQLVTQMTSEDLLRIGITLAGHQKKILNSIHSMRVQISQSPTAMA
Chain of MAPKAPK2 (human) (P49137 whole entry, looked up): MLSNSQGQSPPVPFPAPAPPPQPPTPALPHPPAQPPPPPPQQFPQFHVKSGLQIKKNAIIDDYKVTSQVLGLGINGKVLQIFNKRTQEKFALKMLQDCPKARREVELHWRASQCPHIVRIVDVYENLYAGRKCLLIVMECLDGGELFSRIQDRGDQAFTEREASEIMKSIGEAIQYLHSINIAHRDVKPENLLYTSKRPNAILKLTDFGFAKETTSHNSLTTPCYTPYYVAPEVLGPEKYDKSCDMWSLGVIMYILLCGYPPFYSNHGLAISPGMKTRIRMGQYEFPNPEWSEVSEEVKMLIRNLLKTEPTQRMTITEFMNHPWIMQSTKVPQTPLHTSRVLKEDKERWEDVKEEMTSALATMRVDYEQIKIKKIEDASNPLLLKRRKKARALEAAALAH
Chain of CHEK2 (human) (O96017 whole entry, looked up): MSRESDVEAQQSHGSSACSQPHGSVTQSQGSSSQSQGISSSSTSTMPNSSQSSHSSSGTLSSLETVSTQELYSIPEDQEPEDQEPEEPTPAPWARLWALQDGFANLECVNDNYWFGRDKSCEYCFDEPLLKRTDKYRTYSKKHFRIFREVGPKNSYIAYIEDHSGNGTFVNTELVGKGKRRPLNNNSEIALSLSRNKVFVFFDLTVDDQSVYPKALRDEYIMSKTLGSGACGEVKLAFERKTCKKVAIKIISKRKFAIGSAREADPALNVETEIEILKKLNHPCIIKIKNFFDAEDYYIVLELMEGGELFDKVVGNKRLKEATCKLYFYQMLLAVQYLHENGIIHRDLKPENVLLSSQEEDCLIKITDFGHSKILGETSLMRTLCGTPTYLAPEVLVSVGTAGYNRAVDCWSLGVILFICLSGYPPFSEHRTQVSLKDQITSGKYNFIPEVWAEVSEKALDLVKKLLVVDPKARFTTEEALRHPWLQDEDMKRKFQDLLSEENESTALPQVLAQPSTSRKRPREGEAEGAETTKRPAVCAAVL
Chain of PAK4 (human) (O96013 whole entry, looked up): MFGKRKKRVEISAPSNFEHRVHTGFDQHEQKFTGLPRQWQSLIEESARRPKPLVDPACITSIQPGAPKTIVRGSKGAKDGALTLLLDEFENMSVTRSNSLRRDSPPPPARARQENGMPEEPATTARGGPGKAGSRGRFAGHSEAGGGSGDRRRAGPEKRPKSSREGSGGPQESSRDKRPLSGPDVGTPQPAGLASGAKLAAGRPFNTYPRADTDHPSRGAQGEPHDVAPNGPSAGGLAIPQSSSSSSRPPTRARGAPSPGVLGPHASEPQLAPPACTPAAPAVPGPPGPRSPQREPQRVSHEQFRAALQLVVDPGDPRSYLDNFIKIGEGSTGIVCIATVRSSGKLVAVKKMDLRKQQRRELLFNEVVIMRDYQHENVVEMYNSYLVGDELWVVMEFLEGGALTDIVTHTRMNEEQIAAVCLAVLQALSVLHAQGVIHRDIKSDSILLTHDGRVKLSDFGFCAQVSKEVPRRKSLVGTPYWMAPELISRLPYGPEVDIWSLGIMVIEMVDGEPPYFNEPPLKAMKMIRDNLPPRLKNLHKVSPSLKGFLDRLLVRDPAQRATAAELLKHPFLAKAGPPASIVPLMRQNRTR
Chain of IKBKB (human) (O14920 whole entry, looked up): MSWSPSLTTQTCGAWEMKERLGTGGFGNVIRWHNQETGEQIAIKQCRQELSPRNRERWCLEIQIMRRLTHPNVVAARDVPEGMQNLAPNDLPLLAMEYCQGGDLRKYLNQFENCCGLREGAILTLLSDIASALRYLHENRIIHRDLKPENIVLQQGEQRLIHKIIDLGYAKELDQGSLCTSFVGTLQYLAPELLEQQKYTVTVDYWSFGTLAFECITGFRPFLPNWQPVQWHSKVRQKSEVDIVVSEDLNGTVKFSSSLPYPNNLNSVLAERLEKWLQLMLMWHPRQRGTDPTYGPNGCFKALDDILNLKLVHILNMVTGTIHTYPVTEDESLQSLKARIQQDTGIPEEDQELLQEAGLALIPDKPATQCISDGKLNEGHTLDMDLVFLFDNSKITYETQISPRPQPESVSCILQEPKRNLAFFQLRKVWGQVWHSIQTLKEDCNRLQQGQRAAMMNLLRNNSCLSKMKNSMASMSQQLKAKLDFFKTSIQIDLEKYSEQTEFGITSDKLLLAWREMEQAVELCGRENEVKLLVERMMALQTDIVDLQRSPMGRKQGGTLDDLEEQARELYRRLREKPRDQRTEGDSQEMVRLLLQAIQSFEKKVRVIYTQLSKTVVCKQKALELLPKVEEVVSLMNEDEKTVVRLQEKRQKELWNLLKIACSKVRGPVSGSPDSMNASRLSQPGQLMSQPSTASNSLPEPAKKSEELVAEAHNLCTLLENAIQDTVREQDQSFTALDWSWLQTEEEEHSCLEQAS
Chain of MAPK14 (human) (Q16539 whole entry, looked up): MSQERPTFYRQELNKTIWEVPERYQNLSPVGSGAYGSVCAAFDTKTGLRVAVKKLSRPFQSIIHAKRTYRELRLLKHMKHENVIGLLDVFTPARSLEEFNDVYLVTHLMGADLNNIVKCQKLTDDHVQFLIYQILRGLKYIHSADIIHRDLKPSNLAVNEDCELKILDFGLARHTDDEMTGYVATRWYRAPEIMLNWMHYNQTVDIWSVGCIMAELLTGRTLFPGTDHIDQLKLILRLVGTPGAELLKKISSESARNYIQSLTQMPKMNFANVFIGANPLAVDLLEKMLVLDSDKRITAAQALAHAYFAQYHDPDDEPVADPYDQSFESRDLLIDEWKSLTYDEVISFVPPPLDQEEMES
Chain of MAP2K6 (human) (P52564 whole entry, looked up): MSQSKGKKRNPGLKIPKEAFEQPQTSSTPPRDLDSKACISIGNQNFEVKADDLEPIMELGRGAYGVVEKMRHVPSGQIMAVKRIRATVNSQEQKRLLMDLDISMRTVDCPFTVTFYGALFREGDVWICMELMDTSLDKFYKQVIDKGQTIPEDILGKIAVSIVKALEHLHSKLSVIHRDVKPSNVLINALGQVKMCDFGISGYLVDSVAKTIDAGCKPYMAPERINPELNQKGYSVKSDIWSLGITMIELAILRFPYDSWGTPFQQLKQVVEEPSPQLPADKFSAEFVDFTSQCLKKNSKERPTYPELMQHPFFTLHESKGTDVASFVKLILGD

O=c1c(NC(=S)NCc2ccccc2)cnc2[nH]ccn12
inhibition (LCK (mouse)): 0%
inhibition (DYRK1A (human)): 5%
inhibition (PAK6 (human)): 0%
inhibition (EPHB1 (human)): 3%
inhibition (TBK1 (human)): 0%
inhibition (IKBKB (human)): 0%
inhibition (ERBB4 (human)): 34%
inhibition (SRC (human)): 0%
inhibition (PKN2 (human)): 0%
inhibition (ROCK2 (rat)): 13%
inhibition (MAPK14 (human)): 0%
inhibition (NEK6 (human)): 6%
inhibition (MKNK1 (human)): 0%
inhibition (MAP3K1 (human)): 0%
inhibition (CHEK1 (human)): 0%
inhibition (DYRK3 (human)): 10%
inhibition (CSNK2A1 (human)): 3%
inhibition (BRSK2 (human)): 18%
inhibition (DYRK2 (human)): 13%
inhibition (MAP3K5 (human)): 0%
inhibition (INSRR (human)): 0%
inhibition (CDK2 CCNA2 (human)): 0%
inhibition (MAP2K2 (human)): 0%
inhibition (PAK4 (human)): 18%
inhibition (MAPK15 (human)): 3%
inhibition [1]: 9%
inhibition [2]: 5%
inhibition [3]: 0%
inhibition (AURKA (human)): 8%
inhibition (MAPKAPK2 (human)): 23%
inhibition (CHEK2 (human)): 20%
inhibition (PRKACA (human)): 0%
inhibition (MAP2K6 (human)): 0%
inhibition (TTK (human)): 0%
inhibition (RPS6KA3 KD1 KD2 (human)): 20%
inhibition (GCK (human)): 0%
inhibition (PRKCZ (human)): 0%
inhibition (GSK3B (human)): 13%

O=C(c1cccc(-c2cc3c(=O)[nH]cnc3s2)c1)N1CCOCC1
inhibition (LCK (mouse)): 40%
inhibition (DYRK1A (human)): 52%
inhibition (PAK6 (human)): 0%
inhibition (EPHB1 (human)): 0%
inhibition (TBK1 (human)): 17%
inhibition (IKBKB (human)): 37%
inhibition (ERBB4 (human)): 33%
inhibition (SRC (human)): 33%
inhibition (PKN2 (human)): 0%
inhibition (ROCK2 (rat)): 39%
inhibition (MAPK14 (human)): 0%
inhibition (NEK6 (human)): 44%
inhibition (MKNK1 (human)): 0%
inhibition (MAP3K1 (human)): 0%
inhibition (CHEK1 (human)): 0%
inhibition (DYRK3 (human)): 47%
inhibition (CSNK2A1 (human)): 41%
inhibition (BRSK2 (human)): 30%
inhibition (DYRK2 (human)): 53%
inhibition (MAP3K5 (human)): 54%
inhibition (INSRR (human)): 0%
inhibition (CDK2 CCNA2 (human)): 10%
inhibition (MAP2K2 (human)): 8%
inhibition (PAK4 (human)): 34%
inhibition (MAPK15 (human)): 72%
inhibition [1]: 34%
inhibition [2]: 0%
inhibition [3]: 50%
inhibition (AURKA (human)): 21%
inhibition (MAPKAPK2 (human)): 15%
inhibition (CHEK2 (human)): 34%
inhibition (PRKACA (human)): 17% and 42%
inhibition (MAP2K6 (human)): 2%
inhibition (TTK (human)): 0%
inhibition (RPS6KA3 KD1 KD2 (human)): 39%
inhibition (GCK (human)): 7%
inhibition (PRKCZ (human)): 0%
inhibition (GSK3B (human)): 70%

Nc1cnc2c(-c3c(F)cccc3F)cccn2c1=O
inhibition (LCK (mouse)): 39%
inhibition (DYRK1A (human)): 55%
inhibition (PAK6 (human)): 10%
inhibition (EPHB1 (human)): 0%
inhibition (TBK1 (human)): 23%
inhibition (IKBKB (human)): 66%
inhibition (ERBB4 (human)): 65%
inhibition (SRC (human)): 35%
inhibition (PKN2 (human)): 73%
inhibition (ROCK2 (rat)): 76%
inhibition (MAPK14 (human)): 0%
inhibition (NEK6 (human)): 0%
inhibition (MKNK1 (human)): 1%
inhibition (MAP3K1 (human)): 21%
inhibition (CHEK1 (human)): 0%
inhibition (DYRK3 (human)): 12%
inhibition (CSNK2A1 (human)): 94%
inhibition (BRSK2 (human)): 43%
inhibition (DYRK2 (human)): 20%
inhibition (MAP3K5 (human)): 86%
inhibition (INSRR (human)): 51%
inhibition (CDK2 CCNA2 (human)): 88%
inhibition (MAP2K2 (human)): 71%
inhibition (PAK4 (human)): 50%
inhibition (MAPK15 (human)): 36%
inhibition [1]: 0%
inhibition [2]: 41%
inhibition [3]: 40%
inhibition (AURKA (human)): 89%
inhibition (MAPKAPK2 (human)): 20%
inhibition (CHEK2 (human)): 25%
inhibition (PRKACA (human)): 8% and 12%
inhibition (MAP2K6 (human)): 10%
inhibition (TTK (human)): 45%
inhibition (RPS6KA3 KD1 KD2 (human)): 52%
inhibition (GCK (human)): 95%
inhibition (PRKCZ (human)): 0%
inhibition (GSK3B (human)): 51%
